Measurements reported in EP1074267B1, “Induction of antigen-specific T cells by interferon” (Dainippon Sumitomo Pharma Co., Ltd., priority 1999, dated 2001).
Where no end group is shown, it is not given here.

System: EL-4 cells labeled with 51Cr and pulsed with the peptide Flu366-374
Settings: administered alone using the osmotic pump (100 µg peptide or 10^5 U IFN-α, subcutaneous, 3-day release); spleen 7 days after administration, 5 days re-stimulation; Fig. 1(A)

## ASNESMETM [peptide, Ala-Ser-Asn-Glu-Ser-Met-Glu-Thr-Met]
  peptide-specific CTL induction (cytotoxic activity for peptide-pulsed EL-4 cells): no peptide-specific CTL was induced
